Data: patent US20120016155A1, “DIASTEREOISOMERS OF HYPOPHOSPHOROUS ACID DERIVATIVES” (priority 2009, published 2012)
Structures can show the parent of a compound that is named as a salt. Where two headings read alike, the source gives them in different places.

Legend:
Format in all cases: cell-based
mGlu4 = mGlu4 (Homo sapiens, UniProt Q14833); experiment: Activities on metabotropic glutamate receptor 4 (EC50; readout marked IP or by a symbol); conditions: for mGlu8/4 EC50 ratio: ratio of mGlu8 EC50 to mGlu4 EC50, one per pair of values (readout/batch)
Sequence of mGlu4 (Q14833 33-912): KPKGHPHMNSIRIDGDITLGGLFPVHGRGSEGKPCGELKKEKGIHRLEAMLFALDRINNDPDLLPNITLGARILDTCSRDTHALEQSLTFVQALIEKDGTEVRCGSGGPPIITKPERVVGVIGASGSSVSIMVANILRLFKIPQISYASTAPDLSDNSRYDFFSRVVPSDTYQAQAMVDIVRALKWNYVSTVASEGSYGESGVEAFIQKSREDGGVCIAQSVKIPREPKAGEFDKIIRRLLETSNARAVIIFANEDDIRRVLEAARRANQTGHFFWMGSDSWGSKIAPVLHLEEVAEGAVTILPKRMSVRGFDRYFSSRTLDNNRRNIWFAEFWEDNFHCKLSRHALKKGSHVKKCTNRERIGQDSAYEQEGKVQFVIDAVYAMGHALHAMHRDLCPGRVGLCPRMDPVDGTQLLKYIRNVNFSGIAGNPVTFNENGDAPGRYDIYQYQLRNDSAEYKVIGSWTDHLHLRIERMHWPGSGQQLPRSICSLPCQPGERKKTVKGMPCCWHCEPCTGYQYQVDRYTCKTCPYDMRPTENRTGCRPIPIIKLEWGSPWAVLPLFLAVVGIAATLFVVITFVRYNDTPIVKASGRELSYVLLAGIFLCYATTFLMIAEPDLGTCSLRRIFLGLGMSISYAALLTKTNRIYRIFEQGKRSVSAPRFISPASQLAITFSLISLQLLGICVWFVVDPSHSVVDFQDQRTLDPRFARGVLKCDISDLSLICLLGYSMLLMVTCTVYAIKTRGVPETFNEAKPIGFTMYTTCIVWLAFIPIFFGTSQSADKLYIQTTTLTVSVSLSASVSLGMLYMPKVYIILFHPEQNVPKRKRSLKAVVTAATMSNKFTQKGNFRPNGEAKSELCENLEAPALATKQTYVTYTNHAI
From the text: (§1) Activities on Metabotropic Glutamate Receptors 4, 8, 6 and 7.
(§2) Nitrobenzyl PCEP Derivatives

mGlu8 = mGlu8 (Homo sapiens, UniProt O00222); experiment: Activities on metabotropic glutamate receptor 8 (EC50; readout marked IP or by a symbol)
Sequence of mGlu8 (O00222 34-908): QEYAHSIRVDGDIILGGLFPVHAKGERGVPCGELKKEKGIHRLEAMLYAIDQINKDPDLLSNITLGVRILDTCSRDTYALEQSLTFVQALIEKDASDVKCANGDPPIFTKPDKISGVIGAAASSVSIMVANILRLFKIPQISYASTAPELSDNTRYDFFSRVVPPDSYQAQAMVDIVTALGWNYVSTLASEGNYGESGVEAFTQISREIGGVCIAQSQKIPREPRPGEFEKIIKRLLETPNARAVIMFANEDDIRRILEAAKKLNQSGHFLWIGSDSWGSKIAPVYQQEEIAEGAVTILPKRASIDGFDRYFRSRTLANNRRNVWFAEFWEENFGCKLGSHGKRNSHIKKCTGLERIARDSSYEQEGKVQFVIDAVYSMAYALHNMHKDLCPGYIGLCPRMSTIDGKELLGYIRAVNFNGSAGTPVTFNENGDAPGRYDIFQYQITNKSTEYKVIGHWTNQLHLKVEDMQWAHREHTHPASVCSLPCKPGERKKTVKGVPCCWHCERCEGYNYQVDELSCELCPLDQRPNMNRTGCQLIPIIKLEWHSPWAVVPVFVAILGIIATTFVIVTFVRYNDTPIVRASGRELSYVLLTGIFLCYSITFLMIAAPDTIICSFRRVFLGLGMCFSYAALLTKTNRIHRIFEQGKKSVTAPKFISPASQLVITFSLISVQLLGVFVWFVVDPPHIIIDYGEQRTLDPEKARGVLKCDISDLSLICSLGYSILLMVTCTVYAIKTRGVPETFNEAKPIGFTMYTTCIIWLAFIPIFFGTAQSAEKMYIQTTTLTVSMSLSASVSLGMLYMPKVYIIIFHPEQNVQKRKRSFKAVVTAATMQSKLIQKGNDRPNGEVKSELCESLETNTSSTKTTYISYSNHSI
From the text: as §1, §2

mGlu7 = mGlu7 (Homo sapiens, UniProt Q14831); experiment: Activities on metabotropic glutamate receptor 7 (EC50; readout marked IP or by a symbol); conditions: mean ± spread (n), read-out: mG1u7 EC50 μM (n) (converted)
Sequence of mGlu7 (Q14831 35-915): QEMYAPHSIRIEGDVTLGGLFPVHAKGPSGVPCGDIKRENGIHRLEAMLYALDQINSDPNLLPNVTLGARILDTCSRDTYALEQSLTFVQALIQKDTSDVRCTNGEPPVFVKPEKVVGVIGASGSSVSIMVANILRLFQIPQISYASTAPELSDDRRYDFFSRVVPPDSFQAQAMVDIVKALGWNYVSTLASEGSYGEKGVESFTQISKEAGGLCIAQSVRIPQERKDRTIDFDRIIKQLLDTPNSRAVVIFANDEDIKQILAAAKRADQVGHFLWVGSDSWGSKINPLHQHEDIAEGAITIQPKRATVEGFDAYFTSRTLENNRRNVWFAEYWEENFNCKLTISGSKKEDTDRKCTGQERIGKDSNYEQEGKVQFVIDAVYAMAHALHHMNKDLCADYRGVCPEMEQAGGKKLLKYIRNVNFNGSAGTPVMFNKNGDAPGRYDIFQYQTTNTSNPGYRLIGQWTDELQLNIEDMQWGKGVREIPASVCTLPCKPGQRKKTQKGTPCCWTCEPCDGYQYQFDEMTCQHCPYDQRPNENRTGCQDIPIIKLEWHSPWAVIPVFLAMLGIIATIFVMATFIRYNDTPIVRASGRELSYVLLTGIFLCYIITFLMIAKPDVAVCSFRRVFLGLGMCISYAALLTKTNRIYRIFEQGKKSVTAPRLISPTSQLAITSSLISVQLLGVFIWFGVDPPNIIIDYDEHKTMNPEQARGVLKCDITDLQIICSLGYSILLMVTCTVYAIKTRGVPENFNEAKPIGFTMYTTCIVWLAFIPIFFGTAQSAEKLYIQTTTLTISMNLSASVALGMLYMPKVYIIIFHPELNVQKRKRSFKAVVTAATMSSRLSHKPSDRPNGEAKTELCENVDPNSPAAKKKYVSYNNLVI
From the text: as §1, §2

mGlu6 = mGlu6 (Homo sapiens, UniProt O15303); experiment: Activities on metabotropic glutamate receptor 6 (EC50; readout marked IP or by a symbol); conditions: mean ± spread (n), read-out: mG1u6 EC50 μM (n) (converted)
Sequence of mGlu6 (O15303 25-877): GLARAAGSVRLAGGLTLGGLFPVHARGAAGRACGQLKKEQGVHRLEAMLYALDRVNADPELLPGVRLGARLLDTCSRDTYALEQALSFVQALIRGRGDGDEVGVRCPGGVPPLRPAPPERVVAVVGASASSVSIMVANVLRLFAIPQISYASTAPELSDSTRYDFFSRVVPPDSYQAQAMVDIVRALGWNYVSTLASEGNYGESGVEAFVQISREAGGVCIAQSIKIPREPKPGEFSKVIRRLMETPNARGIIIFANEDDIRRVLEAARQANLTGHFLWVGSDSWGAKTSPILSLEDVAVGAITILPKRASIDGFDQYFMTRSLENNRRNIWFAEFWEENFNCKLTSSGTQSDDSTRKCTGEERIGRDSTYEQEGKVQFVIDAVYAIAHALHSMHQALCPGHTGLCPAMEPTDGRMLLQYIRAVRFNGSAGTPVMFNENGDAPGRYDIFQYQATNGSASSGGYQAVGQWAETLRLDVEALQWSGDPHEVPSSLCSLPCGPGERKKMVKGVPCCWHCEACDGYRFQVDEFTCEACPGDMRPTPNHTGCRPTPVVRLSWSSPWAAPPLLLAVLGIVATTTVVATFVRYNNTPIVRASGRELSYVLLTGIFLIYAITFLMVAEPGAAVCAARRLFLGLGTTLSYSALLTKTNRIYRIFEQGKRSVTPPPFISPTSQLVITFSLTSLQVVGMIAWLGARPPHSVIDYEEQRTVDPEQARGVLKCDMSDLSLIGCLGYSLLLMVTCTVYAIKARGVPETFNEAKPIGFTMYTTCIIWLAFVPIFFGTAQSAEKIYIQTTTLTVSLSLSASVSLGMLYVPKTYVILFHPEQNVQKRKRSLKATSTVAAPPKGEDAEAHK
From the text: as §1, §2

[1] = values marked IP, mean ± spread (n)
[2] = values marked with an image symbol (second readout, not IP), mean ± spread (n)
[3] = values marked with an image symbol (second readout, not IP)

| Structure (SMILES) | EC50 (mGlu4; [2]) | EC50 (mGlu8; [2]) | mGlu8/4 EC50 ratio (mGlu4) | other results |
| --- | --- | --- | --- | --- |
| N[C@@H](CCP(=O)(O)Cc1cccc([N+](=O)[O-])c1)C(=O)O [LSP3-1045, (3S)-3-[(((3-ammonium-3-carboxy)propyl) (hydroxy)phosphinyl)-methyl]3-nitrobenzene] | 0.42 µM | 1 µM | – | EC50 (mGlu4; [1]): 0.8 ± 0.2 µM; EC50 (mGlu8; [1]): 4.4 ± 2 µM |
| Cl.N[C@@H](CCP(=O)(O)C(O)c1ccc(O)c([N+](=O)[O-])c1)C(=O)O (single isomer, unassigned) [LSP3-2074-II] | – | – | 8.5 | – |
| N[C@@H](CCP(=O)(O)C(O)c1cccc(OCC(=O)O)c1)C(=O)O (single isomer, unassigned) [LSP3-3108-I] | 4.9 ± 1 µM | 36 ± 18 µM | 7.4 | – |
| CCOc1cc(C(O)P(=O)(O)CC[C@H](N)C(=O)O)cc([N+](=O)[O-])c1O (single isomer, unassigned) [LSP3-1143-I, hydrochloride] | 5.1 ± 1.2 µM | 33 ± 31 µM | – | mGlu8/4 EC50 ratio (mGlu4; hydrochloride): 6.5 |
| N[C@@H](CCP(=O)(O)C(O)c1cccc([N+](=O)[O-])c1)C(=O)O (mixture of isomers) [LSP1-2093, (3S)-3-[(((3-ammonium-3-carboxy)propyl)(hydroxy)phosphinyl)-hydroxymethyl]3-nitrobenzene] | – | – | – | EC50 (mGlu8; [1]): 1.5 ± 0.5 µM; EC50 (mGlu7; values marked IP): > 1000 µM; EC50 (mGlu6; values marked IP): 8.8 ± 0.7 µM |
| COc1cc(C(O)P(=O)(O)CC[C@H](N)C(=O)O)cc([N+](=O)[O-])c1O (single isomer, unassigned) [LSP3-1101-II, hydrochloride] | 4.7 ± 0.4 µM | 27 ± 14 µM | 5.9 | EC50 (mGlu7; [3]): 100 ± 49 µM; EC50 (mGlu6; [3]): 2.36 ± 0.77 µM |
| COc1ccc(C(O)P(=O)(O)CC[C@H](N)C(=O)O)cc1[N+](=O)[O-] (stereo partly drawn) [LSP1-2101, (3S)-3-[(((3-amino-3-carboxy)propyl) (hydroxy)phosphinyl)-hydroxymethyl]-4-methoxy-3-nitrobenzene] | 4.2 µM | 4.4 µM | – | EC50 (mGlu4; [1]): 0.5 ± 0.09 µM; EC50 (mGlu8; [1]): 0.85 ± 0.07 µM |
| COc1cc(C(O)P(=O)(O)CC[C@H](N)C(=O)O)cc([N+](=O)[O-])c1O (single isomer, unassigned) [LSP3-1101-I, hydrochloride] | 0.74 ± 0.09 µM | 23 ± 6 µM | – | mGlu8/4 EC50 ratio (mGlu4; hydrochloride): 31; EC50 (mGlu7; [3]): 63 ± 35 µM; EC50 (mGlu6; [3]): 1.11 ± 0.41 µM |
| Cl.N[C@@H](CCP(=O)(O)C(O)c1ccc(O)c([N+](=O)[O-])c1)C(=O)O (single isomer, unassigned) [LSP3-2074-II, hydrochloride] | 4.5 ± 0.2 µM | 39.8 ± 6.5 µM | – | EC50 (mGlu7; [3]): 295 ± 178 µM; EC50 (mGlu6; [3]): 68.4 ± 14.5 µM |
| COc1cc(CP(=O)(O)CC[C@H](N)C(=O)O)cc([N+](=O)[O-])c1O.N [LSP3-2134, (3S)-3-[(((3-ammonium-3-carboxy)propyl)(hydroxy)phosphinyl)-methyl]4-hydroxy-5-methoxy-3-nitrobenzene] | 19.7 ± 10.5 µM | 16.6 ± 1.1 µM | 0.85 | – |
| N[C@@H](CCP(=O)(O)C(O)c1cccc(OCC(=O)O)c1)C(=O)O (stereo partly shown) [LSP3-3099] | 7.6 ± 2 µM | 71 ± 25 µM | 9.4 | – |
| NC(CCP(=O)(O)C(O)c1cccc([N+](=O)[O-])c1)C(=O)O (single isomer, unassigned) [LSP3-1098-I, hydrochloride] | 1 ± 0.4 µM | 1.25 ± 0.3 µM | – | – |
| CCOc1cc(C(O)P(=O)(O)CC[C@H](N)C(=O)O)cc([N+](=O)[O-])c1O (single isomer, unassigned) [LSP3-1143-II, hydrochloride] | 6.4 ± 2.4 µM | 9.2 ± 2.6 µM | 1.4 | – |
| N[C@@H](CCP(=O)(O)C(O)c1ccc(O)c([N+](=O)[O-])c1)C(=O)O (single isomer, unassigned) [LSP3-2074-I, hydrochloride] | 0.5 ± 0.07 µM | 31.5 ± 8.6 µM | – | mGlu8/4 EC50 ratio (mGlu4; hydrochloride): 63; EC50 (mGlu7; [3]): 62 ± 26 µM; EC50 (mGlu6; [3]): 3.9 ± 1.7 µM |
| N[C@@H](CCP(=O)(O)C(O)c1cccc(OCC(=O)O)c1)C(=O)O (single isomer, unassigned) [LSP3-3108-II] | 13 ± 2.9 µM | 29.3 ± 7.2 µM | 2.3 | – |
| N[C@@H](CCP(=O)(O)C(O)c1ccc(O)c([N+](=O)[O-])c1)C(=O)O (stereo partly drawn) [LSP1-2109, (3S)-3-[(((3-amino-3-carboxy)propyl) (hydroxy)phosphinyl)-hydroxymethyl]-4-hydroxy-3-nitrobenzene] | – | – | – | EC50 (mGlu7; values marked IP): 69 ± 8 µM; EC50 (mGlu7; [3]): 125 µM; EC50 (mGlu6; values marked IP): 6 ± 0.9 µM; EC50 (mGlu6; [3]): 6.3 µM |
| COc1ccc(C(O)P(=O)(O)CC[C@H](N)C(=O)O)cc1[N+](=O)[O-] (single isomer, unassigned) [LSP2-6146-II, hydrochloride] | 1.7 ± 0.6 µM | 2.2 ± 0.6 µM | 1.3 | – |
| COc1cc(C(N)P(=O)(O)CC[C@H](N)C(=O)O)cc([N+](=O)[O-])c1O (stereo partly drawn) [LSP4-1184, (2S)-amino-4-[[amino(4-hydroxy-5-methoxy-3-nitrophenyl)methyl](hydroxy)phosphoryl]butanoic acid] | 13 ± 3.9 µM | 33 ± 12 µM | – | – |
| CCOc1cc(C(O)P(=O)(O)CC[C@H](N)C(=O)O)cc([N+](=O)[O-])c1O (mixture of isomers) [LSP3-1145, (3S)-3-[(((3-ammonium-3-carboxy)propyl)(hydroxy)phosphinyl)-hydroxymethyl]4-hydroxy-5-ethoxy-3-nitrobenzene] | 8.5 ± 1.1 µM | 27 ± 20 µM | 3.1 | – |
| COc1ccc(C(O)P(=O)(O)CC[C@H](N)C(=O)O)cc1[N+](=O)[O-] (single isomer, unassigned) [LSP2-6146-I, hydrochloride] | 2 ± 0.4 µM | 2.5 ± 0.8 µM | – | mGlu8/4 EC50 ratio (mGlu4; hydrochloride): 1.2 |
| COc1cc(C(O)P(=O)(O)CC[C@H](N)C(=O)O)cc([N+](=O)[O-])c1O (mixture of isomers) [LSP1-2111, (3S)-3-[(((3-ammonium-3-carboxy)propyl)(hydroxy)phosphinyl)-hydroxymethyl]4-hydroxy-5-methoxy-3-nitrobenzene] | – | – | – | EC50 (mGlu4; value printed without readout mark, read-out: mGlu4 EC50 μM (n) (converted)): 1.5 µM; EC50 (mGlu4; [1]): 2.2 ± 0.3 µM; EC50 (mGlu8; value printed without readout mark, read-out: mGlu8 EC50 μM (n) (converted)): 113 µM; EC50 (mGlu8; [1]): 66 ± 12 µM; EC50 (mGlu7; values marked IP): 53 ± 20 µM; EC50 (mGlu7; [3]): 101 µM; EC50 (mGlu6; values marked IP): 1.7 ± 0.1 µM; EC50 (mGlu6; [3]): 3.18 µM |
| NC(CCP(=O)(O)C(O)c1cccc([N+](=O)[O-])c1)C(=O)O (single isomer, unassigned) [LSP3-1098-II, hydrochloride] | 0.9 ± 0.4 µM | 1.3 ± 0.5 µM | – | – |
| NC(c1cccc([N+](=O)[O-])c1)P(=O)(O)CC[C@H](N)C(=O)O (stereo partly drawn) [LSP1-3131, (2S)-amino-4-[[amino(3-nitrophenyl)methyl](hydroxy)phosphinyl]butanoic acid] | – | – | 4.1 | EC50 (mGlu4; [1]): 0.54 ± 0.14 µM; EC50 (mGlu8; [1]): 2.2 ± 0.9 µM |
